Several values for one entry are separate records, joined by “and”; a condition that tells them apart may be missing. Equal values may be shown once.
Conditions: 293.15 K, Liquid, Vibrating tube method

CCCCCCCCCC [decane]
Conditions	mass density
375 kPa	730.1 kg/m3
394 kPa	730.1 kg/m3
411 kPa	730.1 kg/m3
427 kPa	730.1 kg/m3
448 kPa	730.1 kg/m3
469 kPa	730.1 kg/m3
487 kPa	730.1 kg/m3
510 kPa	730.2 kg/m3
528 kPa	730.3 kg/m3
551 kPa	730.3 kg/m3
571 kPa	730.3 kg/m3
605 kPa	730.4 kg/m3
692 kPa	730.3 kg/m3
760 kPa	730.4 kg/m3
843 kPa	730.5 kg/m3
898 kPa	730.6 kg/m3
949 kPa	730.5 kg/m3
998 kPa	730.6 kg/m3
1057 kPa	730.6 kg/m3
1102 kPa	730.7 kg/m3
1141 kPa	730.7 kg/m3
1165 kPa	730.8 kg/m3
1196 kPa	730.7 kg/m3
1214 kPa	730.7 kg/m3
1243 kPa	730.8 kg/m3
1266 kPa	730.8 kg/m3
1302 kPa	730.9 kg/m3
1332 kPa	730.8 kg/m3
1362 kPa	730.9 kg/m3
1397 kPa	730.9 kg/m3
1430 kPa	730.9 kg/m3
1459 kPa	730.9 kg/m3
1493 kPa	731 kg/m3
1535 kPa	731.1 kg/m3
1567 kPa	731.1 kg/m3
1623 kPa	731 kg/m3
1669 kPa	731.1 kg/m3
1712 kPa	731.2 kg/m3
1762 kPa	731.3 kg/m3
1802 kPa	731.2 kg/m3
1843 kPa	731.3 kg/m3
1915 kPa	731.4 kg/m3
1974 kPa	731.3 kg/m3
2021 kPa	731.5 kg/m3
2094 kPa	731.4 kg/m3
2187 kPa	731.5 kg/m3
2240 kPa	731.6 kg/m3
2295 kPa	731.6 kg/m3
2363 kPa	731.7 kg/m3
2423 kPa	731.7 kg/m3
2496 kPa	731.7 kg/m3
2561 kPa	731.9 kg/m3
2629 kPa	731.9 kg/m3
2700 kPa	731.8 kg/m3
2720 kPa	732.1 kg/m3
2731 kPa	732 kg/m3
2742 kPa	732 kg/m3
2755 kPa	732 kg/m3
2770 kPa	732 kg/m3
2785 kPa	731.9 kg/m3
2795 kPa	732 kg/m3
2813 kPa	732 kg/m3
2824 kPa	732 kg/m3
2834 kPa	732 kg/m3
2851 kPa	732.1 kg/m3
2884 kPa	732 kg/m3
2939 kPa	732.1 kg/m3
3009 kPa	732.1 kg/m3
3026 kPa	732.2 kg/m3
3040 kPa	732.2 kg/m3
3052 kPa	732.1 kg/m3
3064 kPa	732.2 kg/m3
3077 kPa	732.2 kg/m3
3094 kPa	732.3 kg/m3
3109 kPa	732.1 kg/m3
3122 kPa	732.3 kg/m3
3136 kPa	732.1 kg/m3
3147 kPa	732.3 kg/m3
3155 kPa	732.2 kg/m3
3188 kPa	732.2 kg/m3
3283 kPa	732.4 kg/m3
3344 kPa	732.4 kg/m3
3442 kPa	732.5 kg/m3
3479 kPa	732.4 kg/m3
3494 kPa	732.5 kg/m3
3506 kPa	732.5 kg/m3
3529 kPa	732.6 kg/m3
3551 kPa	732.6 kg/m3
3564 kPa	732.6 kg/m3
3584 kPa	732.6 kg/m3
3599 kPa	732.7 kg/m3
3619 kPa	732.7 kg/m3
3635 kPa	732.7 kg/m3
3653 kPa	732.6 kg/m3
3672 kPa	732.8 kg/m3
3690 kPa	732.6 kg/m3
3705 kPa	732.8 kg/m3
3719 kPa	732.7 kg/m3
3735 kPa	732.8 kg/m3
3748 kPa	732.6 kg/m3
3764 kPa	732.8 kg/m3
3781 kPa	732.7 kg/m3
3793 kPa	732.9 kg/m3
3810 kPa	732.7 kg/m3
3829 kPa	732.9 kg/m3
3842 kPa	732.8 kg/m3
3861 kPa	732.8 kg/m3
3881 kPa	732.8 kg/m3
3894 kPa	732.8 kg/m3
3916 kPa	732.9 kg/m3
3929 kPa	732.9 kg/m3
3952 kPa	732.9 kg/m3
3964 kPa	732.9 kg/m3
3984 kPa	733 kg/m3
4001 kPa	733 kg/m3
4012 kPa	733 kg/m3
4029 kPa	733 kg/m3
4046 kPa	733 kg/m3
4060 kPa	733 kg/m3
4084 kPa	733 kg/m3
4099 kPa	733 kg/m3
4117 kPa	733 kg/m3
4130 kPa	733.1 kg/m3
4150 kPa	733.2 kg/m3
4166 kPa	733 kg/m3
4190 kPa	733 kg/m3
4211 kPa	733 kg/m3
4226 kPa	733.1 kg/m3
4247 kPa	733.1 kg/m3
4269 kPa	733.3 kg/m3
4281 kPa	733.1 kg/m3
4302 kPa	733.2 kg/m3
4323 kPa	733.1 kg/m3
4338 kPa	733.2 kg/m3
4361 kPa	733.3 kg/m3
4382 kPa	733.2 kg/m3
4401 kPa	733.2 kg/m3
4420 kPa	733.3 kg/m3
4439 kPa	733.3 kg/m3
4450 kPa	733.5 kg/m3
4464 kPa	733.3 kg/m3
4478 kPa	733.3 kg/m3
4500 kPa	733.3 kg/m3
4518 kPa	733.3 kg/m3
4530 kPa	733.3 kg/m3
4544 kPa	733.3 kg/m3
4558 kPa	733.4 kg/m3
4571 kPa	733.3 kg/m3
4586 kPa	733.3 kg/m3
4595 kPa	733.3 kg/m3
4616 kPa	733.5 kg/m3
4637 kPa	733.4 kg/m3
4652 kPa	733.4 kg/m3
4671 kPa	733.3 kg/m3
4685 kPa	733.6 kg/m3
4705 kPa	733.4 kg/m3
4728 kPa	733.4 kg/m3
4742 kPa	733.5 kg/m3
4760 kPa	733.5 kg/m3
4773 kPa	733.5 kg/m3
4795 kPa	733.7 kg/m3
4810 kPa	733.6 kg/m3
4831 kPa	733.5 kg/m3
4849 kPa	733.6 kg/m3
4877 kPa	733.5 kg/m3
4901 kPa	733.6 kg/m3
4914 kPa	733.7 kg/m3
4937 kPa	733.6 kg/m3
4953 kPa	733.7 kg/m3
4976 kPa	733.7 kg/m3
4996 kPa	733.6 kg/m3
5014 kPa	733.8 kg/m3
5029 kPa	733.7 kg/m3
5053 kPa	733.7 kg/m3
5076 kPa	733.8 kg/m3
5091 kPa	733.8 kg/m3
5103 kPa	733.9 kg/m3
5127 kPa	733.8 kg/m3
5148 kPa	733.7 kg/m3
5166 kPa	733.9 kg/m3
5187 kPa	733.8 kg/m3
5202 kPa	733.8 kg/m3
5220 kPa	733.9 kg/m3
5234 kPa	733.8 kg/m3
5248 kPa	733.9 kg/m3
5264 kPa	733.9 kg/m3
5278 kPa	733.9 kg/m3
5297 kPa	733.8 kg/m3
5299 kPa	733.9 kg/m3
5304 kPa	733.9 kg/m3
5315 kPa	733.9 kg/m3
5319 kPa	733.9 kg/m3
5329 kPa	733.9 kg/m3
5335 kPa	734 kg/m3
5346 kPa	734 kg/m3
5352 kPa	734 kg/m3
5362 kPa	733.9 kg/m3
5375 kPa	734 kg/m3
5393 kPa	733.9 kg/m3
5395 kPa	734 kg/m3
5409 kPa	733.9 kg/m3
5422 kPa	734 kg/m3
5424 kPa	734.1 kg/m3
5440 kPa	734 kg/m3
5459 kPa	734 kg/m3
5475 kPa	734.1 kg/m3
5492 kPa	734 kg/m3
5508 kPa	734 kg/m3
5522 kPa	734 kg/m3
5541 kPa	734.1 kg/m3
5556 kPa	734.1 kg/m3
5570 kPa	734.1 kg/m3
5592 kPa	734.1 kg/m3
5612 kPa	734.2 kg/m3
5626 kPa	734.2 kg/m3
5643 kPa	734.2 kg/m3
5656 kPa	734.2 kg/m3
5676 kPa	734.3 kg/m3
5696 kPa	734.2 kg/m3
5714 kPa	734.1 kg/m3
5734 kPa	734.3 kg/m3
5753 kPa	734.2 kg/m3
5771 kPa	734.3 kg/m3
5792 kPa	734.3 kg/m3
5808 kPa	734.4 kg/m3
5824 kPa	734.4 kg/m3
5839 kPa	734.4 kg/m3
5858 kPa	734.4 kg/m3
5880 kPa	734.4 kg/m3
5902 kPa	734.3 kg/m3
5918 kPa	734.4 kg/m3
5937 kPa	734.3 kg/m3
5957 kPa	734.4 kg/m3
5977 kPa	734.5 kg/m3
5992 kPa	734.4 kg/m3
6012 kPa	734.5 kg/m3
6035 kPa	734.5 kg/m3
6050 kPa	734.6 kg/m3
6077 kPa	734.6 kg/m3
6097 kPa	734.6 kg/m3
6112 kPa	734.6 kg/m3
6135 kPa	734.5 kg/m3
6161 kPa	734.6 kg/m3
6198 kPa	734.7 kg/m3
6243 kPa	734.6 kg/m3
6254 kPa	734.6 kg/m3
6257 kPa	734.6 kg/m3
6259 kPa	734.7 kg/m3
6262 kPa	734.6 kg/m3
6265 kPa	734.6 kg/m3
6266 kPa	734.7 kg/m3 and 734.6 kg/m3
6267 kPa	734.6 kg/m3
6268 kPa	734.6 kg/m3
6278 kPa	734.7 kg/m3
6299 kPa	734.6 kg/m3
6320 kPa	734.6 kg/m3
6344 kPa	734.7 kg/m3
6362 kPa	734.7 kg/m3
6383 kPa	734.7 kg/m3
6411 kPa	734.9 kg/m3
6436 kPa	734.7 kg/m3
6451 kPa	734.7 kg/m3
6476 kPa	734.8 kg/m3
6502 kPa	734.9 kg/m3
6521 kPa	734.8 kg/m3
6550 kPa	734.8 kg/m3
6573 kPa	734.8 kg/m3
6596 kPa	734.8 kg/m3
6622 kPa	734.9 kg/m3
6642 kPa	734.8 kg/m3
6665 kPa	735 kg/m3
6692 kPa	734.9 kg/m3
6725 kPa	735 kg/m3
